Consider five compounds from patent publication US10800791B2, “Triazole ACC inhibitors and uses thereof” (Gilead Apollo, LLC, priority 2015, dated 2020).

Assay [1] has as its system C. albicans. Description: Antifungal Activity Assay (broth microtiter MIC), C. albicans. It is filed as cell-based, Candida albicans. To be noted: Candida albicans, ATCC90028, 48 h, Table 3b (additional results); ATCC 90028; 3 replicates; MIC recorded at 48 h; read-out: MIC, C. albicans ATCC 90028. The essentials:
(§1)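 MIC read by eye at 48 h, comparing challenged wells with the growth control. Yeasts grown overnight on Sabouraud dextrose agar at 35° C, suspended in RPMI 1640+MOPS and added at 2.5×10^3 CFU/mL final, following CLSI M27-A3.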

Assay [2] concerns Septoria tritici (St). Description: Growth inhibition assay of fungal pathogens, St. To be noted: Zymoseptoria tritici, 48 h, Septoria tritici; growth inhibition at 48 hours vs 2% DMSO control; read-out: Concentration at 90% Inhibition St. It is filed as cell-based. The essentials:
(§2)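 Percent inhibition derived at 48 hours from OD600 and visual scores versus 2% DMSO control, with media+DMSO blank as background. Spore inocula in 17% V8 medium were sized from 48 h growth curves; compounds tested at final 50/10/2 or 2/0.4/0.08 ppm.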

Assay [3] concerns C. krusei. Description: Antifungal Activity Assay (broth microtiter MIC), C. krusei. It is filed as cell-based, Candida krusei. The settings on record: Pichia kudriavzevii, ATCC6258, 48 h, Table 3b (additional results); ATCC 6258; 3 replicates; MIC recorded at 48 h; read-out: MIC, C. krusei ATCC 6258. The method in brief: as §1
The subject of assay [4] is Rhizoctonia solani (Rs). Description: Growth inhibition assay of fungal pathogens, Rs. It counts as cell-based. The settings on record: 48 h, mycelial plugs, growth inhibition at 48 hours vs 2% DMSO control, read-out: Concentration at 90% Inhibition Rs.
The test system of assay [5] is Botrtyis cinerea (Bc). Description: Growth inhibition assay of fungal pathogens, Bc. It is filed as cell-based. To be noted: 48 h, Botrtyis cinerea; growth inhibition at 48 hours vs 2% DMSO control; read-out: Concentration at 90% Inhibition Bc. The essentials: as §2
In assay [6] the test system is Fusarium moniliforme (Fm). Description: Growth inhibition assay of fungal pathogens, Fm. It is filed as cell-based. The settings on record: Fusarium verticillioides, 48 h, Fusarium moniliforme; growth inhibition at 48 hours vs 2% DMSO control; read-out: Concentration at 90% Inhibition Fm. The essentials:
as §2

Assay [7] concerns Phytophthora capsici (Pc). Description: Growth inhibition assay of fungal pathogens, Pc. The settings on record: 48 h, growth inhibition at 48 hours vs 2% DMSO control, read-out: Concentration at 90% Inhibition Pc. It counts as cell-based. The method in brief: as §2
Assay [8] has as its system Diplodia maydis (Dm). Description: Growth inhibition assay of fungal pathogens, Dm. It is filed as cell-based. The settings on record: Stenocarpella maydis, 48 h, Diplodia maydis; growth inhibition at 48 hours vs 2% DMSO control; read-out: Concentration at 90% Inhibition Dm. The essentials:
as §2

Assay [9] has as its system Fusarium virguliforme (Fv). Description: Growth inhibition assay of fungal pathogens, Fv. It counts as cell-based. To be noted: 48 h, growth inhibition at 48 hours vs 2% DMSO control, read-out: Concentration at 90% Inhibition Fv. The essentials:
as §2

The target of assay [10] is fungal (fACC2) (UniProt Q00955). To be noted: read-out: fACC2 (in vitro ACC2 Inhibition Assay, IC50); Table 2b, additional results; ADP-Glo, 5 nM ACC2, 20 μM ATP, 20 μM acetyl-CoA.
Sequence of fungal (fACC2) (Q00955 whole entry): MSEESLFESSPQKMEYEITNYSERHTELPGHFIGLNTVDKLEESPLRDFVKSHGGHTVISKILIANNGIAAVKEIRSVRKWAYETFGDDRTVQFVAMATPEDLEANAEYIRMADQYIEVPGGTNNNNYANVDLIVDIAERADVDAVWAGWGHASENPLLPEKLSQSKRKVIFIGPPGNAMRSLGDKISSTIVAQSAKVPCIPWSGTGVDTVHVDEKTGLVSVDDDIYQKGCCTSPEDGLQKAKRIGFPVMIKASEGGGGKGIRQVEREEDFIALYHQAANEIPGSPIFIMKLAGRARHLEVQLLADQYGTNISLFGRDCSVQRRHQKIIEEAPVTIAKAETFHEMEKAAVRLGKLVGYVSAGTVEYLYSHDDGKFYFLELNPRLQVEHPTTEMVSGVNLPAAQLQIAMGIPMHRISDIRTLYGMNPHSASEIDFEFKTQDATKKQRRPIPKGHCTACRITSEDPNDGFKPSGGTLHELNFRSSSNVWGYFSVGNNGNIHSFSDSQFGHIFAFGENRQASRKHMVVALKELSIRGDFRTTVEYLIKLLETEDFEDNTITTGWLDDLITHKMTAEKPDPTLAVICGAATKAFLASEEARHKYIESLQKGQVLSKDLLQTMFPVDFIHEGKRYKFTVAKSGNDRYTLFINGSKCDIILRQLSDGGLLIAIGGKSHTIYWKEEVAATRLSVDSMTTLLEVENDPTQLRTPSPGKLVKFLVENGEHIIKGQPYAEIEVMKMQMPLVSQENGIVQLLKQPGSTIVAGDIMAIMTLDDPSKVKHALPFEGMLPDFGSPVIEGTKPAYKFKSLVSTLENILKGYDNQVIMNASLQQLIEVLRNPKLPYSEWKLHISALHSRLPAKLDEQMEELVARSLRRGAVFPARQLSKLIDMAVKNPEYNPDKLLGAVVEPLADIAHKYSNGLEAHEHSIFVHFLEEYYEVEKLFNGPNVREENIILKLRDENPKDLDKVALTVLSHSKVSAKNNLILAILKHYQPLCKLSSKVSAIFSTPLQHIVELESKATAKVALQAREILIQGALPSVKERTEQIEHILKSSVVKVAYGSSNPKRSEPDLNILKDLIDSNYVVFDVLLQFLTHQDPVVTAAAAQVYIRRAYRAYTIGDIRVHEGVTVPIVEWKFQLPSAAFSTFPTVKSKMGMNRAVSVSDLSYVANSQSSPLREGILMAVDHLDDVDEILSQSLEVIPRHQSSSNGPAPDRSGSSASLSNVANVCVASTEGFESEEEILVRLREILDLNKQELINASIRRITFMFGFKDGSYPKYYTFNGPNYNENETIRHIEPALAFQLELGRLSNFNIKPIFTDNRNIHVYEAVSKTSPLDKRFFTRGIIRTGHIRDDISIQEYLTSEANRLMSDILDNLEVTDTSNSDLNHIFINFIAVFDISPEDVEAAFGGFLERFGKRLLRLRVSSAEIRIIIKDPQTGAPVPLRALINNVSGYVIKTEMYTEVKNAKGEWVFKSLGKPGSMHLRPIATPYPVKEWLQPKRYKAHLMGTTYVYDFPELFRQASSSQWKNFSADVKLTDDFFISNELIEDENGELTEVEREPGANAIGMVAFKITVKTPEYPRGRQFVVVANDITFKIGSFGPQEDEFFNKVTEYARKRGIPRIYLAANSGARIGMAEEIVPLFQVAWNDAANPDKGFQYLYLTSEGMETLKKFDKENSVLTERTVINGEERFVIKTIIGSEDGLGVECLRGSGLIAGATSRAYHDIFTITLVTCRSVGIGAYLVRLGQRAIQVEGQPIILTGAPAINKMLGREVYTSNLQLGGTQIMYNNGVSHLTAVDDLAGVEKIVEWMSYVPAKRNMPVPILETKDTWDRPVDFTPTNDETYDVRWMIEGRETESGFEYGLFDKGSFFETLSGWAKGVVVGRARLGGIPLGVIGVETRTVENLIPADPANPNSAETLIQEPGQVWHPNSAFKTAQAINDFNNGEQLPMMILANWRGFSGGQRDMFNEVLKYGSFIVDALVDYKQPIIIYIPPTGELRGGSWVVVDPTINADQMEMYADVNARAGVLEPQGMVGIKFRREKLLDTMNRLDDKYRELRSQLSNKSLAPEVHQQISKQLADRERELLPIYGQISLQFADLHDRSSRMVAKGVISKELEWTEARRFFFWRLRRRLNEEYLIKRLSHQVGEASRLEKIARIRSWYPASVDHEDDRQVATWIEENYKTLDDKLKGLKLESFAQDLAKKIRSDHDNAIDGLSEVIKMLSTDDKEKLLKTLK
Assay [11] concerns the target human (hACC2) (Homo sapiens, UniProt O00763). Description: In vitro ACC inhibition assay (ADP-Glo), hACC2. It is filed as biochemical. To be noted: Table 2b, additional results, 5 nM ACC2, 20 μM ATP, 20 μM acetyl-CoA. How it is done:
The detailed procedure is as follows. […] 10 μL ADP glo reagent was added. […] 20 μL kinase detection reagent was added.

Assay [12] deals with C. parapsilosis. Description: Antifungal Activity Assay (broth microtiter MIC), C. parapsilosis. It counts as cell-based, Candida parapsilosis. To be noted: Lodderomyces parapsilosis, ATCC22019, 48 h, Table 3b (additional results); ATCC 22019; 3 replicates; MIC recorded at 48 h; read-out: MIC, C. parapsilosis ATCC 22019. The method in brief:
as §1

Assay [13] concerns Collectotrichum graminicola (Cg). Description: Growth inhibition assay of fungal pathogens, Cg. To be noted: 48 h, Collectotrichum graminicola; growth inhibition at 48 hours vs 2% DMSO control; read-out: Concentration at 90% Inhibition Cg. It counts as cell-based. The method in brief: as §2

Each structure is given as a SMILES string. Converted amounts (≈) assume the structure as drawn. A value given as a limit tells only on which side of the number the result lay.

Sequence of human (hACC2) (O00763 whole entry): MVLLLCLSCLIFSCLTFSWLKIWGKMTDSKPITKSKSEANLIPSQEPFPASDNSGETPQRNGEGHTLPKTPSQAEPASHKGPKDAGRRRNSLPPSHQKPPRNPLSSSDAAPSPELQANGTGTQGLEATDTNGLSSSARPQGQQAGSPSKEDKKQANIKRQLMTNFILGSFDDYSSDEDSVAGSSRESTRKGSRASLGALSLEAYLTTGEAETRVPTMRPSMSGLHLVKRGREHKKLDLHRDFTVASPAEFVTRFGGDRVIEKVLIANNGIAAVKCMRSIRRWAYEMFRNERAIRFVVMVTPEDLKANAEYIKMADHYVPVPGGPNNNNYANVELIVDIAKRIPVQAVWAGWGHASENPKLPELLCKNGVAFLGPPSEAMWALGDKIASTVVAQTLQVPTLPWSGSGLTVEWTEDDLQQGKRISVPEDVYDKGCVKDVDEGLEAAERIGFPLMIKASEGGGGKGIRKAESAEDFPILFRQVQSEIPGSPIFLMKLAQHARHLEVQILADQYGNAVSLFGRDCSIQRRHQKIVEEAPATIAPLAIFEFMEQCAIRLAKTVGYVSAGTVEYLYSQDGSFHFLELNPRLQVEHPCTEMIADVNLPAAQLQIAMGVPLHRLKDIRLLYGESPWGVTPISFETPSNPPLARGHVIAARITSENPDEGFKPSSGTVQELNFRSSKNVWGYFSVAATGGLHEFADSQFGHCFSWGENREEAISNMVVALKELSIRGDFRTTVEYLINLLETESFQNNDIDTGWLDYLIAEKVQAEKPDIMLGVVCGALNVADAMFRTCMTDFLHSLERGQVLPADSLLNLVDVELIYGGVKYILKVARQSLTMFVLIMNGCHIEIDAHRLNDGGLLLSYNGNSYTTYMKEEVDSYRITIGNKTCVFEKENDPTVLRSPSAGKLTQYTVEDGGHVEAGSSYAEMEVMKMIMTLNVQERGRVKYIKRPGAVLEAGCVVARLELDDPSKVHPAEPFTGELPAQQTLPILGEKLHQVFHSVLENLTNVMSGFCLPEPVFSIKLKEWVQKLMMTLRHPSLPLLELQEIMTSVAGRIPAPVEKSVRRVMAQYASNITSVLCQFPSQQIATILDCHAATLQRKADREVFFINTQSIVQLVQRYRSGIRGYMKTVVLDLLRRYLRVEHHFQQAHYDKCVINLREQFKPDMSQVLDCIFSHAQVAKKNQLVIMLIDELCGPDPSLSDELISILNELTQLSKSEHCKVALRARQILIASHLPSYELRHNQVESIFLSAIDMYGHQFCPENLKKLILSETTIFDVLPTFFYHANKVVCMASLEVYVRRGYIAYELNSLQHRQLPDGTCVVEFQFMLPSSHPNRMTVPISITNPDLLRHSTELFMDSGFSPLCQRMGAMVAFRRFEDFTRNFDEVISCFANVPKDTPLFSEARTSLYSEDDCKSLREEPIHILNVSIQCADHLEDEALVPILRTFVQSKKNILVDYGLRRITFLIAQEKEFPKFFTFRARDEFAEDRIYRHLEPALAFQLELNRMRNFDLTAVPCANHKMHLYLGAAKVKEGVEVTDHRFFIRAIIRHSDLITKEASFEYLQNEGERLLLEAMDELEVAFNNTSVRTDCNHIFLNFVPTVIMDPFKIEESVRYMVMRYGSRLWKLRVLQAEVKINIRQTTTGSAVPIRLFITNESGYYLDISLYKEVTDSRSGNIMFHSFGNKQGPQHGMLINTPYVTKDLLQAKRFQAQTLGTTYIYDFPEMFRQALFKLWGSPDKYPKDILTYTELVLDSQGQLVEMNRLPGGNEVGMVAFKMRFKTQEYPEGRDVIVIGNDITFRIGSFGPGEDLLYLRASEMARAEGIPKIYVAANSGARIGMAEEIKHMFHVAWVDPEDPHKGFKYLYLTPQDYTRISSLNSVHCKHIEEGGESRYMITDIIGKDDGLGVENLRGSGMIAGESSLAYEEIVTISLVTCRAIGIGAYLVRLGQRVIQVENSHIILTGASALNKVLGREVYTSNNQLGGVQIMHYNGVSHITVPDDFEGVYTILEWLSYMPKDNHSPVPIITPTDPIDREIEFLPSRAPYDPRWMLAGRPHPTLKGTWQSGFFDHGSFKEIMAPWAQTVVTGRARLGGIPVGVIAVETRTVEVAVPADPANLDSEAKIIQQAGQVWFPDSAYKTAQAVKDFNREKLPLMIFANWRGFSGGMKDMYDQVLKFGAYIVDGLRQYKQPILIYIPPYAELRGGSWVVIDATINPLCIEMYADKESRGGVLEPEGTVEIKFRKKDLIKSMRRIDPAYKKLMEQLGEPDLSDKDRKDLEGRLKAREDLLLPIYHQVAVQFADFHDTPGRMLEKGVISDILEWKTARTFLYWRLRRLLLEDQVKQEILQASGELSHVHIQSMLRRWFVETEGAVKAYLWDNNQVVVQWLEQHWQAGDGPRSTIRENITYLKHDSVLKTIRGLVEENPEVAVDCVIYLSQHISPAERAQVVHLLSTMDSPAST

As to `COc1ccccc1[C@H](Cn1c(=O)n([C@@H](C)C(=O)N(C)C(C)C)c(=O)c2c(C)c(-n3nccn3)sc21)OCCC#N` [Compound I-206], the figures for the MIC in assay [1], in assay [3] and in assay [12] were 2.01 to 4 µg/mL (≈ 3.47 to 6.9 µM), 2.01 to 4 µg/mL (≈ 3.47 to 6.9 µM) and 1.01 to 2 µg/mL (≈ 1.74 to 3.45 µM), respectively. Further, the IC90 in assay [2] was found to be 10 µg/mL (≈ 17.3 µM); in assay [4], 0.08 µg/mL (≈ 0.138 µM); in assay [5] it was 2 µg/mL (≈ 3.45 µM); in [6], 0.08 µg/mL (≈ 0.138 µM); in [7] it was 10 µg/mL (≈ 17.3 µM); in assay [8], 2 µg/mL (≈ 3.45 µM). Further, the IC90 in assay [9] is 0.08 µg/mL (≈ 0.138 µM); in assay [13] it was 2 µg/mL (≈ 3.45 µM). Further, the IC50 is 0.3 to 1 nM in [10] and 1 to 5 nM in assay [11].
As to `COc1ccc(F)cc1[C@H](Cn1c(=O)n([C@H](C)C(=O)NC(C)C)c(=O)c2c(C)c(-n3nccn3)sc21)OCC(C)(C)C#N` [Compound I-210], the MIC in [1] is 1.01 to 2 µg/mL (≈ 1.65 to 3.27 µM); in [3] it was 2.01 to 4 µg/mL (≈ 3.29 to 6.54 µM); in assay [12], 1.01 to 2 µg/mL (≈ 1.65 to 3.27 µM). For the same compound, the IC90 was 2 µg/mL (≈ 3.27 µM) in assay [2]; 0.08 µg/mL (≈ 0.131 µM) in [4]; 0.4 µg/mL (≈ 0.654 µM) in assay [5]; 0.08 µg/mL (≈ 0.131 µM) in assay [6]; over 50 µg/mL in assay [7]; 0.4 µg/mL (≈ 0.654 µM) in assay [8]. Besides, the IC90 in [9] and in assay [13] was 0.4 µg/mL (≈ 0.654 µM) throughout. Further, the IC50 in [10] was in the range of 0.3 to 1 nM; in assay [11], 1 to 5 nM.
Turning to `COc1ccc(F)cc1[C@H](Cn1c(=O)n([C@@H](C)C(=O)NC(C)C)c(=O)c2c(C)c(-n3nccn3)sc21)OCC(C)(C)C#N` [Compound I-211], the figures for the minimum inhibitory concentration (MIC) in assay [1], in [3] and in [12] were 1.01 to 2 µg/mL (≈ 1.65 to 3.27 µM), 2.01 to 4 µg/mL (≈ 3.29 to 6.54 µM) and 1.01 to 2 µg/mL (≈ 1.65 to 3.27 µM), respectively. Further, the IC90 is over 50 µg/mL in [2]; over 50 µg/mL in assay [4]; 2 µg/mL (≈ 3.27 µM) in assay [5]; 2 µg/mL (≈ 3.27 µM) in [6]; over 50 µg/mL in assay [7]; 10 µg/mL (≈ 16.3 µM) in [8]. Further, the IC90 in [9] and in assay [13] was over 50 µg/mL in each case. In addition, the IC50 in assay [10] lay in the range of 1 to 5 nM; in assay [11], 10 to 40 nM.
On to `COc1ccc(F)cc1[C@H](Cn1c(=O)n([C@H](C)C(N)=O)c(=O)c2c(C)c(-n3nccn3)sc21)OCC(C)(C)C#N` [Compound I-212], for which the MIC in [1] is 0.25 to 1 µg/mL (≈ 0.439 to 1.76 µM); in [3], over 4.01 µg/mL; in assay [12], 2.01 to 4 µg/mL (≈ 3.53 to 7.02 µM). Also, the IC90 was over 50 µg/mL in assay [2]; 2 µg/mL (≈ 3.51 µM) in [4]; 2 µg/mL (≈ 3.51 µM) in assay [5]; 2 µg/mL (≈ 3.51 µM) in [6]; over 50 µg/mL in assay [7]; 10 µg/mL (≈ 17.6 µM) in assay [8]. Moreover, the IC90 in assay [9] and in assay [13] was 10 µg/mL (≈ 17.6 µM) each time. For the same compound, the IC50 in assay [10] and in assay [11] was 1 to 5 nM each time.
As to `COc1ccc(F)cc1[C@H](Cn1c(=O)n([C@@H](C)C(N)=O)c(=O)c2c(C)c(-n3nccn3)sc21)OCC(C)(C)C#N` [Compound I-213], the MIC in assay [1] was 0.25 to 1 µg/mL (≈ 0.439 to 1.76 µM); in assay [3], over 4.01 µg/mL; in [12], 2.01 to 4 µg/mL (≈ 3.53 to 7.02 µM). In addition, the IC90 was over 50 µg/mL in [2]; over 50 µg/mL in [4]; over 50 µg/mL in assay [5]; 10 µg/mL (≈ 17.6 µM) in assay [6]; over 50 µg/mL in assay [7]; over 50 µg/mL in assay [8]. The IC90 in assay [9] and in assay [13] was over 50 µg/mL in each case. Also, the IC50 lay in the range of 1 to 5 nM in assay [10] and 5 to 10 nM in assay [11].
